Literature values in patent publication US7101842B2, “Targeted delivery of drugs for the treatment of parasitic infections” (priority 2001, dated 2006).

Test system: trypanosomiasis
Conditions: patients treated for sleeping sickness

In the case of `Nc1nc(N)nc(Nc2ccc([As]3SCC(CO)S3)cc2)n1` (centres unmarked) [melarsopral], the “fatal encepholopathy in recipients” value is listed as 5–7% and the relapse rates is listed as no more than 10%.
